± gives the standard deviation of the averaged measurements.
Legend:
Assay in all cases: level (log10 ratio to DMSO vehicle control); higher = higher biomarker level / cell amount than vehicle control
Conditions in all cases: in DMSO
[1] = compound: COC(=O)CCC(F)(F)C(F)(F)C(F)(F)C(F)(F)F [Methyl 2H,2H,3H,3H-perfluoroheptanoate]
Procedure: (§1)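 BioMAP Diversity Plus panel of 12 human primary cell co-culture systems (3C, 4H, LPS, SAg, BT, BF4T, BE3C, CASM3C, HDF3CGF, KF3CT, MyoF, Mphg). Compounds were added 1 h before stimulation and left for 24 h (MyoF 48 h; BT 72 h for soluble read-outs or 6 d for IgG). Biomarkers were read by ELISA, cytotoxicity by SRB, PBMC viability and proliferation by Alamar Blue. Each well value was divided by the mean of 8 DMSO control wells on the same plate and log10 transformed; duplicate blinded samples were tested at 4 concentrations.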

[2] = compound: FC(F)(F)C(F)(C(F)(F)F)C(F)(F)C(F)(F)CC1CO1 [3-(Perfluoro-3-methylbutyl)-1,2-propenoxide]
Procedure: as §1

Perfluoro-1-iodohexane = compound: FC(F)(F)C(F)(F)C(F)(F)C(F)(F)C(F)(F)C(F)(F)I [Perfluoro-1-iodohexane]
Procedure: as §1

[3] = compound: FC(F)(F)C(F)(F)C(F)(F)C(F)(F)C(F)(F)CCI [1-Iodo-1H,1H,2H,2H-perfluoroheptane]
Procedure: as §1

[4] = compound: NCC(F)(F)C(F)(F)C(F)(F)C(F)(F)C(F)(F)C(F)(F)C(F)(F)F [1H,1H-Perfluorooctylamine]
Procedure: as §1

Perfluoroheptanoic acid = compound: O=C(O)C(F)(F)C(F)(F)C(F)(F)C(F)(F)C(F)(F)C(F)(F)F [Perfluoroheptanoic acid]
Procedure: as §1

Perfluoropropanoic acid = compound: O=C(O)C(F)(F)C(F)(F)F [Perfluoropropanoic acid]
Procedure: as §1

Test System	level (log10) ([1]; 6700 nM)	level (log10) ([1]; 20000 nM)	level (log10) ([1]; 60000 nM)	level (log10) ([2]; 6700 nM)	level (log10) ([2]; 20000 nM)	level (log10) (Perfluoro-1-iodohexane; 6700 nM)	level (log10) (Perfluoro-1-iodohexane; 20000 nM)	level (log10) (Perfluoro-1-iodohexane; 60000 nM)	level (log10) ([3]; 6700 nM)	level (log10) ([3]; 20000 nM)	level (log10) ([3]; 60000 nM)	level (log10) ([4]; 6700 nM)	level (log10) ([4]; 20000 nM)	level (log10) ([4]; 60000 nM)	level (log10) (Perfluoroheptanoic acid; 6700 nM)	level (log10) (Perfluoroheptanoic acid; 20000 nM)	level (log10) (Perfluoroheptanoic acid; 60000 nM)	level (log10) (Perfluoropropanoic acid; 6700 nM)	level (log10) (Perfluoropropanoic acid; 20000 nM)	level (log10) (Perfluoropropanoic acid; 60000 nM)
KF3CT:PAI-I	-0.01 ± 0.013	-0.009 ± 0.0042	-0.0105 ± 0.0092	0 ± 0.035	-0.011 ± 0.037	0.001 ± 0.0014	-0.0005 ± 0.005	0.0055 ± 0.005	-0.007 ± 0.02	-0.014 ± 0.0071	-0.0245 ± 0.028	-0.0025 ± 0.005	-0.001 ± 0.0014	0.003 ± 0.014	-0.043 ± 0.016	-0.0355 ± 0.012	-0.013 ± 0.068	0.0095 ± 0.07	0.021 ± 0.0071	-0.006 ± 0.1
3C:CD106/VCAM-1	-0.0175 ± 0.028	-0.0125 ± 0.013	0.0065 ± 0.005	-0.0275 ± 0.019	-0.0005 ± 0.013	0.003 ± 0.024	0.0075 ± 0.018	0 ± 0.047	-0.01 ± 0.0028	-0.02 ± 0.0042	-0.0205 ± 0.022	-0.0035 ± 0.00071	-0.016 ± 0.0057	-0.005 ± 0.0099	0.0165 ± 0.018	-0.02 ± 0.0042	-0.003 ± 0.014	-0.025 ± 0.0014	-0.0145 ± 0.005	0.004 ± 0.0014
KF3CT:CXCL8/IL-8	-0.0125 ± 0.019	-0.007 ± 0.013	0.0175 ± 0.044	-0.0155 ± 0.0078	0.0035 ± 0.013	-0.0125 ± 0.016	0.003 ± 0.0014	0 ± 0.011	0.007 ± 0.035	0.028 ± 0.02	0.06 ± 0.011	-0.0205 ± 0.035	-0.0295 ± 0.029	-0.014 ± 0.0085	-0.0055 ± 0.0064	0.002	0.0105 ± 0.00071	-0.0125 ± 0.011	0.0095 ± 0.0092	0.0475 ± 0.03
CASM3C:CD142/Tissue Factor	-0.021 ± 0.027	0.001 ± 0.013	0.015 ± 0.017	-0.038 ± 0.047	-0.033 ± 0.014	-0.009 ± 0.013	-0.018 ± 0.0042	-0.031	0.001 ± 0.0085	-0.0065 ± 0.005	-0.0295 ± 0.028	-0.018 ± 0.0014	-0.0135 ± 0.015	0.021 ± 0.03	-0.0065 ± 0.012	0.015 ± 0.016	0.015 ± 0.071	-0.0995 ± 0.039	-0.0395 ± 0.03	-0.0085 ± 0.039
CASM3C:LDLR	0.016 ± 0.0099	0.0095 ± 0.005	0.033 ± 0.028	-0.012 ± 0.017	-0.002 ± 0.011	-0.008 ± 0.0057	0.0155 ± 0.016	0.005 ± 0.028	0.0005 ± 0.011	0.009	0.013 ± 0.016	-0.0295 ± 0.005	-0.018 ± 0.023	0.007 ± 0.0042	0.0175 ± 0.0092	0.012 ± 0.016	0.0125 ± 0.039	-0.0845 ± 0.07	-0.036 ± 0.054	-0.022 ± 0.073
lMphg:CD106/VCAM-1	-0.0055 ± 0.012	0.009 ± 0.0057	0.0055 ± 0.037	0.005	-0.0115 ± 0.022	0.0085 ± 0.032	-0.0035 ± 0.018	-0.003 ± 0.0099	0.005	-0.004 ± 0.0042	-0.017 ± 0.011	-0.005 ± 0.0014	-0.003 ± 0.014	-0.0165 ± 0.005	-0.0115 ± 0.005	0.001 ± 0.0014	-0.0095 ± 0.032	-0.008 ± 0.013	0.0185 ± 0.0035	0.023 ± 0.016
lMphg:sIL-10	-0.0515 ± 0.029	-0.117 ± 0.12	0.0005 ± 0.037	-0.005 ± 0.028	-0.04 ± 0.013	-0.0575 ± 0.1	-0.048 ± 0.0042	-0.047 ± 0.0057	0.003 ± 0.033	0.01 ± 0.017	-0.114 ± 0.062	-0.067 ± 0.14	-0.002 ± 0.082	-0.022 ± 0.04	-0.017 ± 0.018	0.007 ± 0.027	-0.0945 ± 0.032	-0.0045 ± 0.016	0.008 ± 0.0099	-0.042 ± 0.024

From the supplement of paper PMC10331698
